In patent publication US11730732B2, “Oral suspension of temozolomide” (Orphelia Pharma, priority 2018, dated 2023):

Test: Particle size of temozolomide drug substance entering the composition
Type: physicochemical
From the text: Characteristically, the composition of temozolomide according to the invention further contains at least one agent controlling the solid state of temozolomide in suspension. Indeed and during the development of the compositions of the invention, the Applicants observed an erratic recrystallisation of temozolomide after reconstitution of some suspensions with water. […] The recrystallisation triggered dose inhomogeneity within the suspensions, with large crystals settling down the bottom of the bottle or container. Furthermore, large crystals tended to clog the syringe for oral administration. This recrystallisation phenomenon was also observed in compositions containing povidone, the excipient used in the hospital-compounded formulations developed by Trissel et al. and Ambados et al.

particle size d90: < 100 μm
SMILES: Cn1nnc2c(C(N)=O)ncn2c1=O [temozolomide, 3-methyl-4-oxoimidazo[5,1-d][1,2,3,5]tetrazine-8-carboxamide]
